# Test system: NOMO1
# Assay: cell viability relative to DMSO control; higher = less cytotoxic
# Conditions: 48 h
# Method in brief: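 NOMO1 or SEM cells were plated at 500 cells/well and P12-Ichikawa cells at 1000 cells/well in 1536-well plates (5 μl), after each leukemia line had been adapted for at least four passages in each medium. Pin dosing delivered library compounds in DMSO at 11 threefold concentrations, 47 μM to 0.79 nM. CellTiter-Glo One luminescence was read after 48 h at 37°C. Viability is reported as a per-plate percentage of DMSO wells, with cell-free wells as background.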
# [1] = HPLM + 10% dialyzed FBS, 0.000781 µM
# [2] = HPLM + 10% dialyzed FBS, 0.00234 µM
# [3] = HPLM + 10% dialyzed FBS, 0.00702 µM
# [4] = HPLM + 10% dialyzed FBS, 0.0211 µM
# [5] = HPLM + 10% dialyzed FBS, 0.0632 µM
# [6] = HPLM + 10% dialyzed FBS, 0.19 µM
# [7] = HPLM + 10% dialyzed FBS, 0.569 µM
# [8] = HPLM + 10% dialyzed FBS, 1.71 µM
# [9] = HPLM + 10% dialyzed FBS, 5.12 µM
# [10] = HPLM + 10% dialyzed FBS, 15.4 µM
# [11] = HPLM + 10% dialyzed FBS, 46.1 µM
# [12] = RPMI 5 mM glucose + 10% FBS, 0.000781 µM
# [13] = RPMI 5 mM glucose + 10% FBS, 0.00234 µM
# [14] = RPMI 5 mM glucose + 10% FBS, 0.00702 µM
# [15] = RPMI 5 mM glucose + 10% FBS, 0.0211 µM
# [16] = RPMI 5 mM glucose + 10% FBS, 0.0632 µM
# [17] = RPMI 5 mM glucose + 10% FBS, 0.19 µM
# [18] = RPMI 5 mM glucose + 10% FBS, 0.569 µM
# [19] = RPMI 5 mM glucose + 10% FBS, 1.71 µM
# [20] = RPMI 5 mM glucose + 10% FBS, 5.12 µM
# [21] = RPMI 5 mM glucose + 10% FBS, 15.4 µM
# [22] = RPMI 5 mM glucose + 10% FBS, 46.1 µM
# [23] = RPMI 5 mM glucose + 10% dialyzed FBS, 0.000781 µM
# [24] = RPMI 5 mM glucose + 10% dialyzed FBS, 0.00234 µM
# [25] = RPMI 5 mM glucose + 10% dialyzed FBS, 0.00702 µM
# [26] = RPMI 5 mM glucose + 10% dialyzed FBS, 0.0211 µM
# [27] = RPMI 5 mM glucose + 10% dialyzed FBS, 0.0632 µM
# [28] = RPMI 5 mM glucose + 10% dialyzed FBS, 0.19 µM
# [29] = RPMI 5 mM glucose + 10% dialyzed FBS, 0.569 µM
# [30] = RPMI 5 mM glucose + 10% dialyzed FBS, 1.71 µM
# [31] = RPMI 5 mM glucose + 10% dialyzed FBS, 5.12 µM
# [32] = RPMI 5 mM glucose + 10% dialyzed FBS, 15.4 µM
# [33] = RPMI 5 mM glucose + 10% dialyzed FBS, 46.1 µM
Structure (SMILES),cell viability [1],cell viability [2],cell viability [3],cell viability [4],cell viability [5],cell viability [6],cell viability [7],cell viability [8],cell viability [9],cell viability [10],cell viability [11],cell viability [12],cell viability [13],cell viability [14],cell viability [15],cell viability [16],cell viability [17],cell viability [18],cell viability [19],cell viability [20],cell viability [21],cell viability [22],cell viability [23],cell viability [24],cell viability [25],cell viability [26],cell viability [27],cell viability [28],cell viability [29],cell viability [30],cell viability [31],cell viability [32],cell viability [33]
COC(=O)C1C2CC3c4[nH]c5cc(OC)ccc5c4CCN3CC2CC(OC(=O)c2cc(OC)c(OC)c(OC)c2)C1OC (configuration not stated),108%,123%,101%,125%,119%,112%,115%,106%,112%,102%,81.3%,106%,94.6%,107%,103%,95.2%,104%,93.4%,94.1%,96.4%,95.7%,90.2%,105%,101%,103%,93.8%,92.1%,98.2%,98.5%,105%,102%,112%,82.9%
N[S+](=O)([O-])c1cccc2c1C(=O)c1cccc(O)c1C2=O,105%,115%,112%,105%,119%,106%,107%,85%,91.6%,78.7%,4.98%,110%,101%,103%,98.5%,115%,107%,91.9%,94.9%,88.2%,97.1%,3.99%,97.6%,104%,97.3%,103%,102%,107%,108%,94.9%,94.3%,82.9%,4.93%
N#Cc1ccnc(Nc2cc(C3CCN(C4COC4)CC3)cc(N3CCC(F)(F)C3)n2)c1,121%,109%,119%,114%,103%,110%,114%,124%,127%,53.2%,10.6%,101%,99.7%,106%,106%,93.6%,108%,105%,102%,107%,44.7%,11.3%,108%,91.6%,110%,102%,96.2%,107%,98.7%,108%,107%,39.1%,9.87%
NC(=O)c1cccc2nc(-c3ccc([C@H]4CCCN4)cc3F)[nH]c12,112%,120%,108%,133%,116%,131%,128%,106%,119%,107%,81.5%,95.8%,95.4%,104%,114%,125%,107%,117%,107%,101%,105%,89.6%,102%,112%,117%,121%,118%,114%,132%,130%,120%,109%,81.3%
[O-]C(=O)C1=C(C(=C(Cl)C(=C1Cl)Cl)Cl)C/2=C/3\C=C(I)/C(=O)/C(=C3OC4=C2C=C(I)C(=C4I)[O-])I,101%,136%,116%,122%,140%,129%,143%,133%,130%,113%,102%,–,–,–,–,–,–,–,–,–,–,–,–,–,–,–,–,–,–,–,–,–,–
O=C(Oc1ccc([N+](=O)[O-])cc1)N1CCC(C(O)(c2ccc3c(c2)OCO3)c2ccc3c(c2)OCO3)CC1,102%,95.5%,93%,119%,107%,92.3%,107%,88.5%,85.3%,89.8%,58.4%,87.7%,87.7%,83%,91.8%,96.6%,90.1%,86.2%,86.3%,88.3%,88.4%,89.2%,73.1%,73.3%,86%,80.4%,90.3%,77.9%,84.2%,71%,65.6%,74.6%,74.5%
CN(C)CCOc1ccc(-c2nc(-c3ccncc3)c(-c3ccc4c(c3)CC/C4=N\O)[nH]2)cc1,98.1%,113%,102%,110%,127%,129%,129%,107%,95.3%,95.2%,62.9%,97%,101%,95%,104%,118%,112%,97.2%,95.5%,104%,86.9%,81.4%,108%,105%,121%,106%,119%,121%,115%,106%,85.5%,85.4%,53.8%
CN(C)CC[C@H](c1ccc(Cl)cc1)c1ccccn1,70.4%,74%,78.8%,77.9%,75.7%,77.9%,88.3%,79.7%,81%,78.8%,87.1%,75%,76.5%,77.1%,80.3%,81.4%,81.2%,80.7%,79.6%,83.2%,79.9%,83.7%,74%,88.2%,83.1%,85.9%,81.5%,86.5%,95.7%,89.5%,89.5%,91%,82.8%

# Reference: the supplement of paper PMC11451515
